This is an account of results in patent US20170157150A1, “ORAL DOSAGE FORM COMPRISING TRI-SUBSTITUTED GLYCEROL COMPOUNDS” (Alphaptose GmbH, priority 2006, published 2017).

In one series the test system is LNCaP-Res cells. As to the kind of experiment: Apoptosis after CHEM+RT in androgen-insensitive cells. The format is cell-based. Particulars: data not shown.
Series [1] has as its system LNCaP androgen-sensitive human prostate adenocarcinoma cells. As to the kind of experiment: Trypan blue dye exclusion, percentage of living tumor cells. Particulars: for survival rate: untreated controls about 86%. The format is cell-based. As for the experimental part:
(§1) FIG. 3. Depicts the in vitro effects of 1-O-octadecyl-2-O-methyl-glycero-3-phosphocholine (final concentration 10 μM), (ionizing) radiation (absorbed dose of 5 Gray units; indicated as “RT”), and a combination thereof on programmed cell death (apoptosis) and the survival rate of LNCaP androgen-sensitive human prostate adenocarcinoma cells. Apoptosis was determined using the Apo-ONE™ Homogenous Caspase-3/7 Assay, Promega, Inc., Madison, Wis., USA according to the manufacturer's instructions. The percentage of living cancer cells was estimated by means of trypan blue dye exclusion as described (Freshney, R. I. (1994) Culture of Animal Cells: A Manual of Basic Technique. 3rd Ed. Wiley-Liss. New York. USA). The cells were exposed to radiation six hours after (FIG. 3A), concomitantly with (FIG. 3B), or six hours before administration of 1-O-octadecyl-2-O-methyl-glycero-3-phospho-choline (FIG. 3C). The caspase assay was performed 12 hours after exposure to radiation. The respective data shown represent the average of two independent experiments.
(§2) First, the in vitro effects of 1-O-octadecyl-2-O-methyl-glycero-3-phosphocholine, (ionizing) radiation, and a combination thereof on programmed cell death (apoptosis) and the survival rate of LNCaP androgen-sensitive human prostate adenocarcinoma cells were measured. The LNCaP cell line was established from a metastatic lesion of the adenocarcinoma. The cells were treated with a final concentration of 10 μM 1-O-octadecyl-2-O-methyl-glycero-3-phosphocholine and (ionizing) radiation corresponding to an absorbed dose of 5 Gray units.
(§3) Apoptosis was determined using the Apo-ONE™ Homogenous Caspase-3/7 Assay, Promega, Inc., Madison, Wis., USA according to the manufacturer's instructions. The percentage of living tumor cells was estimated by means of trypan blue dye exclusion as described (Freshney, R. I. (1994) Culture of Animal Cells: A Manual of Basic Technique. 3rd Ed. Wiley-Liss. New York. USA)
(§4) The cells were exposed to radiation six hours after (FIG. 3A), concomitantly with (FIG. 3B), or six hours before administration of 1-O-octadecyl-2-O-methyl-glycero-3-phospho-choline (FIG. 3C). The caspase assay was performed 12 hours after exposure to radiation. The respective data shown represent the average of two independent experiments.

The test system is the same in series [2]. Briefly: Apo-ONE Homogenous Caspase-3/7 Assay (apoptosis). The class given is cell-based. As for the experimental part: as §1, §2, §3, §4
(§5) In a further approach, 10 μM 1-O-octadecyl-2-O-methyl-glycero-3-phosphocholine (final concentration; “CHEM”) and (ionizing) radiation (5 Gray units; “RT”) were administered simultaneously to the LNCaP cells but the subsequent incubation period was extended to 24 hours. Apoptosis was measured using the Apo-ONE™ Homogenous Caspase-3/7 Assay as described above and expressed as relative fluorescence units (RFLU). The percentage of apoptotic cells was determined by flow cytometric analysis of annexin V-PE positive-stained and 7-AAD (7-Amino ActinomycinD) negative-stained cells (both purchased from BD Biosciences, San Jose, Calif., USA) according to established standard protocols. The data represent means±SEM from three independent experiments.
(§6) Next, the interaction of 1-O-octadecyl-2-O-methyl-glycero-3-phosphocholine administration (“CHEM”) and androgen deprivation (“AD”) was investigated. LNCaP cells were deprived of androgen for two days by charcoal absorption of serum according to established procedures well known in the art. CHEM was added in a final concentration of 5 μM and 10 μM, respectively.
(§7) Apoptosis was measured using the Apo-ONE™ Homogenous Caspase-3/7 Assay as described above and expressed as relative fluorescence units (RFLU). The percentage of apoptotic cells was determined via annexin V-PE/7-AAD staining as described above. The caspase-3/7 assay and annexin staining were performed 22 hours after CHEM treatment.

Another series relates to LNCaP C4-2 cells. As to the kind of experiment: Apoptosis after CHEM+RT in androgen-insensitive cells. Particulars: data not shown. The class given is cell-based.
Series [3] deals with LNCaP cells grown orthotopically in the prostates of nude mice. As to the kind of experiment: Orthotopic LNCaP prostate tumor model, serum PSA and tumor volume (MRI). The class given is in vivo. Particulars: 30 mg/kg body weight/day intraperitoneally for 15 days + radiation 5 Gray on day 7; preliminary study. As for the experimental part:
FIG. 4. Depicts the in vivo effects of 1-O-octadecyl-2-O-methyl-glycero-3-phosphocholine (30 mg/kg body weight/day administered intraperitoneally for 15 days: FIG. 4A), (ionizing) radiation (absorbed dose of 5 Gray units administered on day 7; FIG. 4C), and a combination thereof (FIG. 4B) on LNCaP cells grown orthotopically in the prostates of nude mice (seven mice/group). Tumor growth was assessed via determining the serum level of the prostate-specific antigen (PSA) using a commercially available test kit as well as the tumor volume by means of magnetic resonance imaging.
Additionally, in a preliminary study the in vivo effects of 1-O-octadecyl-2-O-methyl-glycero-3-phosphocholine (ionizing) radiation, and a combination thereof on LNCaP cells grown orthotopically in the prostates of nude mice (seven mice/group) was investigated.
1-O-octadecyl-2-O-methyl-glycero-3-phosphocholine was administered intraperitoneally in a dose of 30 mg/kg body weight/day administered intraperitoneally for 15 days (FIG. 4A; studies using different routes of administration such as orally or by gavage are currently under way). […] Tumor growth was assessed via determining the serum level of the prostate-specific antigen (PSA) using a commercially available test kit as well as the tumor volume by means of magnetic resonance imaging.

Another series relates to LNCaP cells. As to the kind of experiment: Flow cytometry of annexin V-PE positive / 7-AAD negative cells (apoptotic cells). The format is cell-based, human. As for the experimental part: as §5, §6, §7
A short description of series [4]: Differential scanning calorimetry, excipient compatibility. The format is physicochemical. As to conditions: crystalline compound, heating 5 K/min up to 300° C., cooling 1 K/min down to −30° C. As for the experimental part:
FIG. 1. Depicts the results of differential scanning calorimetry (DCS) analyses for determining excipient compatibility using a Netzsch DSC 204 apparatus (Netzsch Gerätebau GmbH, Selb, Germany) with a heating rate of 5 K/min up to 300° C. and a cooling rate of 1 K/min down to −30° C. (temperature onset at room temperature (approx. 20° C.)). The below-mentioned samples were tested: crystalline 1-O-octadecyl-2-O-methyl-glycero-3-phosphocholine alone (black curves), the following excipients alone (red curves): lactose (FIG. 1A), crospovidone (FIG. 1B), starch 1500 (FIG. 1C), siliciumdioxide (FIG. 1D), as well as magnesium stearate (FIG. 1E), and binary mixtures of 1-O-octadecyl-2-O-methyl-glycero-3-phosphocholine and each excipient (green curves).
Differential scanning calorimetry (DCS) analyses were performed for determining the compatibility of different excipients for formulating tablets according to the present invention.
DSC is a thermoanalytical technique in which the difference in the amount of heat required to increase the temperature of a sample and reference is measured as a function of temperature. Both the sample and reference are maintained at nearly the same temperature throughout the experiment. Generally, the temperature program for a DSC analysis is designed such that the temperature increases or decreases linearly as a function of time. […]
For orientation: DSC measures the heat that a sample takes up or gives off during a temperature scan.

The mark [5] stands for this setting: 10 μM CHEM + RT (5 Gray) simultaneously, 24 hours incubation, means±SEM, p<0.0001 vs CHEM and RT.
The mark [6] stands for this setting: AD + R1881 (two days prior to CHEM) + 5 μM CHEM, 22 hours.
The mark [7] stands for this setting: AD + R1881 (two days prior to CHEM) + 10 μM CHEM, 22 hours.

For the molecule `CCCCCCCCCCCCCCCCCCOCC(COP(=O)([O-])OCC[N+](C)(C)C)OC` (stereo not drawn) [1-O-octadecyl-2-O-methyl-glycero-3-phosphocholine], the “apoptosis in CHEM+RT treated cells” value with LNCaP-Res cells and in the series on LNCaP C4-2 cells was “enhancement of apoptosis” throughout. In addition, the “survival rate of tumor cells” value in series [1] (10 μM compound alone, FIG. 3A experiment, untreated controls about 85%) is on record as “about 60%”. The survival rate entry in series [1] (10 μM compound alone, FIG. 3B experiment) was “about 50%”; in series [1] (10 μM compound concomitantly with radiation (5 Gray), FIG. 3B) it was “about 55%”. For the same molecule, the survival of cells result in series [1] (10 μM compound alone, FIG. 3C experiment) is “about 45%”; in series [1] (10 μM compound six hours after radiation (5 Gray), combined treatment, FIG. 3C), “about 40%”. In addition, the “survival of tumor cells” value in series [1] (10 μM compound six hours prior to radiation (5 Gray), combined treatment, FIG. 3A, untreated controls about 85%) is reported as “about 45%”. The “Caspase-3/7 activity (RFLU)” value came to 1514 ± 102 RFLU in series [2] (setting [5]); 580 ± 207 RFLU in series [2] (10 μM CHEM alone, 24 hours incubation, means±SEM, three experiments, control 193 ± 39); 453 RFLU in series [2] (setting [6]); 962 RFLU in series [2] (setting [7]); 380 RFLU in series [2] (Contr. cells + 5 μM CHEM, 22 hours after treatment, Contr. 235); 436 RFLU in series [2] (Contr. cells + 10 μM CHEM, 22 hours after treatment, Contr. 235). In addition, the “Caspase-3/7 activity (RFLU)” value is 126 RFLU in series [2] (androgen deprivation (AD) two days + 5 μM CHEM, 22 hours, AD alone 81) and 115 RFLU in series [2] (androgen deprivation (AD) two days + 10 μM CHEM, 22 hours, AD alone 81). In series [2] (10 μM compound six hours after radiation (5 Gray), FIG. 3C), the “extent of apoptosis, increase in cells only exposed to the chemical as compared to combined treatment” value is recorded as “about 25%”. In series [2] (10 μM compound six hours prior to radiation (5 Gray), combined treatment, assay 12 hours after radiation, FIG. 3A), the “increase in apoptotic response (caspase-3/7 assay)” value is recorded as greater than 2.5 fold. Further, the “PSA serum levels, combined treatment compared to either individual treatment” value in series [3] is “significant decrease”. Further, the “% Annexin V-PE pos. cells” value worked out at 31.7 ± 1.0 % with LNCaP cells (setting [5]); 18.6 ± 1.0% in the series with LNCaP cells (10 μM CHEM alone, 24 hours incubation, means±SEM, three experiments, control 3.6 ± 0.2); 14.6% in the series on LNCaP cells (setting [6]); 21.6% with LNCaP cells (setting [7]); 13.0% in the series on LNCaP cells (Contr. cells + 5 μM CHEM, 22 hours after treatment, Contr. 9.8); 17.5% with LNCaP cells (Contr. cells + 10 μM CHEM, 22 hours after treatment, Contr. 9.8). The “% Annexin V-PE pos. cells” value with LNCaP cells (androgen deprivation (AD) two days + 5 μM CHEM, 22 hours, AD alone 12.6) is reported as 15.4%; in the series on LNCaP cells (androgen deprivation (AD) two days + 10 μM CHEM, 22 hours, AD alone 12.6) it was 27.4%. Besides, the “apoptotic response in androgen-deprived LNCaP cells” value in the series with LNCaP cells (androgen-deprived cells, 5 μM and 10 μM) was “dose-dependent significant increase”. In addition, the “reversal of the apoptotic effect by synthetic androgen added prior to treatment” value in the series with LNCaP cells (androgen-deprived cells, R1881 added two days prior) is on record as “not reversed”.
Turning to `C[C@]1(O)CC[C@H]2[C@@H]3CCC4=CC(=O)CCC4=C3C=C[C@@]21C` [R1881], the “Caspase-3/7 activity (RFLU)” value in series [2] (AD + R1881, no CHEM, AD alone 81) came to 130 RFLU. For the same molecule, in the series with LNCaP cells (AD + R1881, no CHEM, AD alone 12.6), the “% Annexin V-PE pos. cells” value came out at 7.0%.
In the case of `OC[C@H]1O[C@@H](O[C@H]2[C@H](O)[C@@H](O)C(O)O[C@@H]2CO)[C@H](O)[C@@H](O)[C@H]1O` (stereo partly drawn) [lactose], the “interaction of excipient with 1-O-octadecyl-2-O-methyl-glycero-3-phosphocholine (DSC thermogram of binary mixture)” value in series [4] is “show such interactions”.
As for magnesium stearate, the “interaction of excipient with 1-O-octadecyl-2-O-methyl-glycero-3-phosphocholine (DSC thermogram of binary mixture)” value in series [4] is given as “dominate the thermogram”.
